“And” between values parts separate entries of the source, which are not always exact repeats. Equal values may be shown once.
Columns and labels:
mouse Per2 promoter = assay: Per2-Luc reporter (CREB/CRTC2-mediated transcription of PER2); assay type: cell-based; conditions: preliminary research
Method: SREBP1 (m-SREBP1) and fat acid synthase (FASN) in glucagon- insulin treated cells, […]
mTORC1 activity at the same time. mTORC1 h as been reported to enh ance SREBP1c mediated lipogenesis m ainly by increasing the mat uration of SREBP1c prot eins (2015, The CREB coactivator CRTC2 controls hepatic lipid metabolism by regulating S REBP1, Nature, […]
Aug 13;524(7564):243- 6.). […]
hyperactivation caused by liver specific TSC1 deletion is insufficient to induce SREBP1c activation and de novo lipogenesis in the liver of high fat diet fed mice (Akt stimulates hepatic SREBP1c and lipogenesis through parallel mTORC1- dependent and independent pathways. Cell Metabolism . 2011. 14.1: 21- 32). Considered the requirement of TSC1 for PER2 to inhibit mTORC1 activity, the reduction of PER2 by APC may not be sufficient to induce SREBP1c activati on. Moreover, ou r dat a su ggest that APC redu ces the trans cription of SREBP1c in vivo (Figures 5b and 5g) , which would result in the decrease of whole SREBP1c protein levels and overcom e the effect on lipogenesis caused by APC activation of mTORC1. […]
Data are repres ented as mean ± SEM (n=4). *, p < 0.05; **, p< 0.01. pval ues wer e determined by one-way ANOVA followed Dunnett’s multiple comparisons test (Left).
The over-expr essed proteins FLAG- CREB and HA-CRTC2-171A were detected in the lysates of the luciferase reporter assay by immunoblotting (Right). […]

primary hepatocytes = assay: Glucose production assay; assay type: cell-based, mouse
Method: Primary hepatocytes were exposed to propolis, APC or vehicle control for 1-h prior to 4-h stimulation with glucagon, and then incubated in no-glucose no-phenol-red DMEM (Sigma) supplied with 2 mM sodium pyruvate (Sigma) and 10 mM sodium lactate (Sigma) for 8-h. Glucose levels in the media were detected using a GO kit (Sigma).

tissue protein levels = assay: Immunoblotting of tissue proteins in treated mice; assay type: in vivo, mouse; conditions: for Relative LXRa/ACTIN, Mean Diff. (VEH vs. treated) / Relative LXRa/ACTIN, Mean 2 (group mean) / Relative LXRa/ACTIN: Figure 7h; for Relative LXRa/ACTIN, Mean 2 (group mean): N2 = 4; for Relative LXRa/ACTIN: single replicates
Method: Immunoblotting and immunoprecipitation assays were performed as previously described, with antibodies recognizing CREB, Ser133-P-CREB, AMPK, P-AMPK, AKT, P-AKT (Cell Signaling), PGC-1α (Merck), CRTC2 (Calbiochem), PCK1 (Santa Cruz), SREBP1 (Santa Cruz), SREBP2 (BD), HA (Convance), LXRα (Santa Cruz), FLAG (Sigma), GST (Covance), HIS (Abmart), GAPDH (AOGMA), α-TUBULIN (Abmart), β-ACTIN (Abmart), and other antibodies (Supplementary Table 3). For immunostaining assays, primary cultured hepatocytes seeded on coverslips were fixed with 4% paraformaldehyde for 20 min, permeabilized with 0.3% Triton X-100 in PBS, and then blocked by 5% normal goat serum and 0.3% Triton X-100 in PBS, followed by incubation with anti-CREB (1:1000), anti-P-CREB (1:1000), or anti-HA (1:3000) antibodies for 1 h at 4 °C. Slides were then washed, and after washing, slides were incubated with fluorochrome-conjugated secondary antibodies (Invitrogen). Slides were then washed and mounted with Vectashield mounting media containing 4, 6-diamidino-2-phenylindole (DAPI).

[1] = Figure 6b right, N=4, VEH mean 1
[2] = Figure 6b right, individual animals, relative to VEH
[3] = Figure 8c, relative protein in DIO liver, individual samples
[4] = db/db mice, liver, group mean, N=3, VEH mean 1
[5] = db/db mice, liver, individual mouse
[6] = liver of DIO mice, individual samples, n=3
[7] = liver, CRTC2KO mice, drug minus VEH
[8] = liver, WT mice, group mean, N=4

**Q.** What does the source list for CC(C)=CCc1cc(C=CC(=O)O)cc(CC=C(C)C)c1O [APC, 3,5-diprenyl-4-hydroxycinnamic acid]?
**A.** CREB/CRTC2-mediated transcription of PER2 (mouse Per2 promoter): reduced; glucose output and Pgc-1α, Pck1 expression in CRTC2-null primary hepatocytes (primary hepatocytes; glucagon, APC 10 μM): unable to further reduce; glucose output induced by glucagon (primary hepatocytes; primary hepatocytes, APC 5 μM): reduced; hepatic protein levels of PCK1 and PGC-1α (tissue protein levels; DIO and db/db mice): decreased; accumulation of mature SREBP proteins in the liver (tissue protein levels; DIO mice): reducing; protein levels of LXRα and SREBP1 in the liver (tissue protein levels; DIO mice): decreased; SREBP1/GAPDH, Predicted (LS) mean (tissue protein levels; [1]): 0.3097; SREBP2/GAPDH, Predicted (LS) mean (tissue protein levels; [1]): 0.1841; Relative SREBP1/2 protein levels: SREBP1/GAPDH (tissue protein levels; [2]): 0.2289 and 0.468 and 0.339 and 0.2027; Relative SREBP1/2 protein levels: SREBP2/GAPDH (tissue protein levels; [2]): 0.3721 and 0.1919 and 0.1184 and 0.05422; PGC1a/GAPDH density, mean (tissue protein levels; Figure 8c, DIO liver, group mean, N=3, Ctrl mean 1): 0.5994; PCK1/GAPDH density, mean (tissue protein levels; Figure 8c, DIO liver, group mean, N=3, Ctrl mean 1.007): 0.6998; Relative PGC1a/GAPDH density (tissue protein levels; [3]): 0.6916 and 0.563 and 0.5437; relative PCK1/GAPDH density (tissue protein levels; [3]): 0.6644 and 0.7152 and 0.7198; Relative LXRa/ACTIN, Mean Diff. (VEH vs. treated) (tissue protein levels; CRTC2KO): 0.1178; Relative LXRa/ACTIN, Mean 2 (group mean) (tissue protein levels; CRTC2KO): 0.6864; Relative LXRa/ACTIN (tissue protein levels; CT2KO): 0.6612 and 0.7951 and 0.6751 and 0.6141; Relative LXRa/ACTIN, Mean Diff. (VEH vs. treated) (tissue protein levels; WT): 0.3705; Relative LXRa/ACTIN, Mean 2 (group mean) (tissue protein levels; WT): 0.525; Relative LXRa/ACTIN (tissue protein levels; WT): 0.572 and 0.5732 and 0.4815 and 0.4734; Relative PCK1/TUBLIN in db/db liver, mean (tissue protein levels; [4]): 0.4585 folds; Relative PGC1a/TUBLIN in db/db liver, mean (tissue protein levels; [4]): 0.2953 folds; Relative proteins in the liver of db/db mice, PCK1/TUBLIN (tissue protein levels; [5]): 0.5197 folds and 0.4980 folds and 0.3577 folds; Relative proteins in the liver of db/db mice, PGC1a/TUBLIN (tissue protein levels; [5]): 0.2725 folds and 0.3156 folds and 0.2979 folds; relative protein levels in liver of DIO: LXRa/GAPDH (tissue protein levels; [6]): 0.741 and 0.777 and 0.8147; relative protein levels in liver of DIO: PPARa/GAPDH (tissue protein levels; [6]): 0.924 and 0.9 and 0.98; relative protein levels in liver of DIO: SREBP1/GAPDH (tissue protein levels; [6]): 0.391 and 0.515 and 0.283; relative protein levels in liver of DIO: LXRa, group mean (Mean 1) (tissue protein levels; liver of DIO mice, mean of N=3): 0.7776; relative protein levels in liver of DIO: PPARa, group mean (Mean 1) (tissue protein levels; liver of DIO mice, mean of N=3): 0.9347; relative protein levels in liver of DIO: SREBP1, group mean (Mean 1) (tissue protein levels; liver of DIO mice, mean of N=3): 0.3963; SREBP1/ACT IN CT2KO, Mean Diff. vs. VEH (tissue protein levels; [7]): -0.1371; SREBP2/ACT IN CT2KO, Mean Diff. vs. VEH (tissue protein levels; [7]): -0.0958; SREBP1/ACT IN CT2KO, mean (tissue protein levels; liver, CRTC2KO mice, group mean, N=4): 0.5503; SREBP1/ACT IN CT2KO (related SREBP1 protein levels in CRTC2KO liver) (tissue protein levels; liver, CRTC2KO mice, individual replicates, Supp.fig.5a left): 0.5592 and 0.5689 and 0.5793 and 0.4937; SREBP2/ACT IN CT2KO (related SREBP2 protein levels in CRTC2KO liver) (tissue protein levels; liver, CRTC2KO mice, individual replicates, Supp.fig.5a right): 0.6411 and 0.5673 and 0.6822 and 0.6938; SREBP1/ACT IN WT, Mean Diff. vs. VEH (tissue protein levels; liver, WT mice, drug minus VEH): -0.2945; SREBP2/ACT IN WT, Mean Diff. vs. VEH (tissue protein levels; liver, WT mice, drug minus VEH): -0.4593; SREBP1/ACT IN WT, mean (tissue protein levels; [8]): 0.6687; SREBP2/ACT IN WT, mean (tissue protein levels; [8]): 0.5653; SREBP1/ACT IN WT (related SREBP1 protein levels in liver) (tissue protein levels; liver, WT mice, individual replicates, Supp.fig.5a left): 0.6865 and 0.5728 and 0.728 and 0.6877; SREBP2/ACT IN WT (related SREBP2 protein levels in liver) (tissue protein levels; liver, WT mice, individual replicates, Supp.fig.5a right): 0.6071 and 0.5991 and 0.5115 and 0.5437; phosphorylated AKT in liver, muscle, brown and white adipose tissues (tissue protein levels; treated obese mice): enhanced
